Values after ≈ are worked out from the molar mass of the structure shown. Where two headings read alike, the source gives them in different places.
Key:
[1] = test system: 16 MDR P. aeruginosa clinical isolates; assay: Pyocyanin production in MDR clinical isolates; conditions: Pseudomonas aeruginosa, 18 h, Control about 100, replicates
[2] = Solubility in iPBS pH 7.4 by HPLC; format: physicochemical; conditions: isotonic phosphate buffer (iPBS), aqueous with cosolvent or surfactant or cyclodextrin, kinetic from dmso stock; iPBS pH 7.4, HPLC; read-out: Solubility (M) in PBS
Outline: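 Compounds from 10 mM DMSO stock shaken 4 h at room temperature in iPBS pH 7.4 (10 mM PBS, 2.7 mM KCl, 140 mM NaCl, 0.05% Tween), then filtered. Concentration measured by HPLC-UV against a known standard solution; solubility given as ratio of compound in test solution to standard.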

[3] = test system: mvfR mutant constitutively expressing the pqsABCDE operon; format: cell-based; conditions: Pseudomonas aeruginosa, control about 100, single replicates (Figure 4a)
ΔmvfR biofilm = assay: Biofilm formation of ΔmvfR mutant (off-target); conditions: Pseudomonas aeruginosa, PA14, 24 h, read-out: Biofilm formation, ΔmvfR + compound; PA14 about 100; single replicates (Figure 4c)
Procedure: Biofilm was grown in the 96-well microtiter plate at 37 °C for 24 h containing M63 minimal media in the presence of 10 µM of the compounds or vehicle. The biofilm grown with the vehicle was considered as a control. The percentage value was calculated in comparison to the PA14 control. a–c Data represent at least n = 3, each dot on the graph represents one biological replicate. The number of biological replicates for each compound and strain is depicted in the graph. The error bars denote ±SEM.
The overnight grown starter culture was diluted 1:1000 in 5 mL LB media in a glass tube and was incubated at 37 °C and 200 rpm in an incubator shaker until the culture reached an OD600nm 3.0. The culture was then diluted at 1:100 in M63 minimal media supplemented with 0.2% glucose, 0.5% Casamino Acids, and 1 mM MgSO4. Initiation of the Biofilm formation was performed in the 96 well plates; 200 µL of diluted culture was added in the wells with (10 µM) or without compounds. The cultures were allowed to grow at 37 °C in static conditions for 24 hours. Thereafter, planktonic culture was removed from the wells, and wells were washed three times with distilled water (DW). Biofilm was stained with 0.1% crystal violet and incubated for 15 min at room temperature (RT). Access dye was removed from the wells and washed off three times with DW, and 200 µL ethanol: acetone (80:20) was added to the wells. The plate was incubated for 30 min at RT, and the OD was measured by spectrophotometry at 570 nm in the infinite F200 plate reader using the Magellan software (Tecan, Switzerland). Percent biofilm formation was calculated in comparison to PA14 culture that was grown in the absence of compounds.

MvfR protein (MvfRC87) = target: T1, MvfR protein (MvfRC87) (Pseudomonas aeruginosa, UniProt Q9I4X0); format: binding; conditions: SPR
T1 construct: The MvfRC87 protein purified as in Xiao et. al., 2006; made in house
T1 sequence (Q9I4X0 87-332): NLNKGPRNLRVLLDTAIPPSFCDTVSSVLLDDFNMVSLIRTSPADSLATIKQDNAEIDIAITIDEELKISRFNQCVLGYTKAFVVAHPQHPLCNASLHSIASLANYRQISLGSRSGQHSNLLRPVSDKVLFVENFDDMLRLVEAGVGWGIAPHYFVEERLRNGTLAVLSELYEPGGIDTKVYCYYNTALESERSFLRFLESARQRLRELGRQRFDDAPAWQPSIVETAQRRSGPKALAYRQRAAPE
Outline: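 MvfRC87 amine-coupled to a CM7 chip (3000–5000 RU) and binding measured by SPR. Double-reference-corrected responses 5 s before end of association plotted against concentration, for inhibitor alone and with native ligand PQS, compared with responses calculated for different binding sites.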

[4] = test system: PA14 isogenic mutant ΔmvfR AT/P cells; assay: AT/P cell formation in ΔmvfR mutant (off-target); conditions: Pseudomonas aeruginosa, PA14, 24 h, read-out: AT/P cell formation, ΔmvfR + compound; PA14 about 100; single replicates (Figure 4b)
Procedure: Cells were grown in the presence of 10 μg mL^−1 meropenem, with or without 10 µM of the compounds for 24 h. Values were normalized to cells grown for 4 h in the absence of antibiotics and compounds. The ∆mvfR cells grown with antibiotics and vehicles were considered control, and the percentage values were calculated compared to control. c Biofilm formation of mutant ∆mvfR cells with or without compound. […] The number of biological replicates for each compound and strain is depicted in the graph. The error bars denote ±SEM.
The AT/P cell formation assay was performed according to the method previously described in Starkey et al., 2014 (persister cell assay). The over-day culture was incubated at 37 °C with shaking at 200 rpm until the culture OD600nm was 3.0. The culture was then diluted at 1:100 and grown in the same conditions for 4 h. After 4 h, 200 µL were collected, and serial dilutions were plated on LB agar plates for CFU quantification (as normalizers). The remainder of the culture was treated with meropenem to a final concentration of 100 × MIC (Minimum Inhibitory Concentration; 10 mg L^−1) and compounds at a final concentration of 10 µM. After 24 h, culture aliquots were 10-fold serially diluted in LB broth and plated on LB agar for CFU quantification. The AT/P fraction was determined as the normalizers (pre-antibiotic) ratio divided by the AT/P fraction (24 h post-antibiotic)[22].

[5] = test system: pqsA promoter (PA14 PpqsA-GFPASV); assay: pqsA-GFP reporter expression; format: cell-based, Pseudomonas aeruginosa; conditions: Pseudomonas aeruginosa; for activity at 50 µM: PA14, read-out: % Production pqsA-GFP; for IC50: PA14, read-out: IC50 pqsA-GFP expression, PA14, 13 concentrations
PA14 AT/P cells = assay: AT/P cells formation assay in PA14; format: cell-based, Pseudomonas aeruginosa; conditions: for inhibition at 10 µM: Pseudomonas aeruginosa, PA14, 24 h, read-out: inhibition of AT/P cells formation
[6] = test system: MvfR-regulated small molecules in PA14; assay: Production of HAQs, 2-AA, DHQ and AA in PA14 cultures (LC-MS); conditions: Pseudomonas aeruginosa
[7] = test system: pyocyanin production in PA14; assay: Pyocyanin production assay; conditions: Pseudomonas aeruginosa; for activity at 50 µM: PA14, 18 h, read-out: % Production Pyocyanin; for IC50: PA14, read-out: IC50 pyocyanin production
[8] = read-out: Pyocyanin production relative to Control, clinical isolate LGR-4325
[9] = read-out: Pyocyanin production relative to Control, clinical isolate LGR-4326
[10] = read-out: Pyocyanin production relative to Control, clinical isolate LGR-4327
[11] = read-out: Pyocyanin production relative to Control, clinical isolate LGR-4328
[12] = read-out: Pyocyanin production relative to Control, clinical isolate LGR-4330
[13] = read-out: Pyocyanin production relative to Control, clinical isolate LGR-4331 (first section, r117)
[14] = read-out: Pyocyanin production relative to Control, clinical isolate LGR-4331 (second section, r140)
[15] = read-out: Pyocyanin production relative to Control, clinical isolate LGR-4333
[16] = read-out: Pyocyanin production relative to Control, clinical isolate LGR-4343
[17] = read-out: Pyocyanin production relative to Control, clinical isolate LGR-4344
[18] = read-out: Pyocyanin production relative to Control, clinical isolate LGR-4348
[19] = read-out: Pyocyanin production relative to Control, clinical isolate LGR-4356
[20] = read-out: Pyocyanin production relative to Control, clinical isolate LGR-4362
[21] = read-out: Pyocyanin production relative to Control, clinical isolate LGR-4363
[22] = read-out: Pyocyanin production relative to Control, clinical isolate LGR-4364 (first section, r326)
[23] = read-out: Pyocyanin production relative to Control, clinical isolate LGR-4364 (second section, r349)
[24] = read-out: HQNO, ΔmvfR-pqsABCD strain
[25] = PA14, read-out: % Production 2-AA
[26] = PA14, read-out: % Production AA
[27] = PA14, read-out: % Production DHQ
[28] = PA14, read-out: % Production HHQ
[29] = PA14, read-out: % Production HQNO
[30] = PA14, read-out: % Production PQS
[31] = PA14, read-out: HHQ production inhibition
[32] = PA14, read-out: HQNO production inhibition
[33] = PA14, read-out: PQS production inhibition
[34] = PA14, read-out: inhibition of 2-AA production
[35] = PA14, read-out: inhibition of DHQ production

N#Cc1ccc(NC(=O)CC(=O)Nc2ccc(Cl)cc2)cc1 [D41]
activity at 10 µM [1, 8]: 15.5% | activity at 10 µM [1, 9]: 14.8% | activity at 10 µM [1, 10]: 34.4% | activity at 10 µM [1, 11]: 11.9% | activity at 10 µM [1, 12]: 13.4% | activity at 10 µM [1, 13]: 17.4% | activity at 10 µM [1, 14]: 10.7% | activity at 10 µM [1, 15]: 18.8% | activity at 10 µM [1, 16]: 17.4% | activity at 10 µM [1, 17]: 21.8% | activity at 10 µM [1, 18]: 17.7% | activity at 10 µM [1, 19]: 18.8% | activity at 10 µM [1, 20]: 35.7% | activity at 10 µM [1, 21]: 23.4% | activity at 10 µM [1, 22]: 19.1% | activity at 10 µM [1, 23]: 22% | solubility at 4 h [2]: 1.3e-05 M (≈ 4.08 µg/mL) | activity at 50 µM [3, 24]: 81.9% | activity at 10 µM (ΔmvfR biofilm): 25.4% | Response Unit (RU) (MvfR protein (MvfRC87); Concentration 1.00E-05 M): 28.8 RU | Response Unit (RU) (MvfR protein (MvfRC87); Concentration 1.00E-06 M): 22.7 RU | Response Unit (RU) (MvfR protein (MvfRC87); Concentration 1.00E-07 M): 10.6 RU | Response Unit (RU) (MvfR protein (MvfRC87); Concentration 1.00E-08 M): 2.6 RU | Response Unit (RU) (MvfR protein (MvfRC87); Concentration 3.16E-06 M): 26.5 RU | Response Unit (RU) (MvfR protein (MvfRC87); Concentration 3.16E-07 M): 16.9 RU | Response Unit (RU) (MvfR protein (MvfRC87); Concentration 3.16E-08 M): 5.4 RU | activity at 10 µM [4]: 43.4% | activity at 50 µM [5]: 8% | IC50 [5]: 1090 nM | inhibition at 10 µM (PA14 AT/P cells): ≥ 76% | activity at 50 µM [6, 25]: 6% | activity at 50 µM [6, 26]: 739% | activity at 50 µM [6, 27]: 11% | activity at 50 µM [6, 28]: 2% | activity at 50 µM [6, 29]: 15% | activity at 50 µM [6, 30]: 9% | inhibition at 50 µM [6, 31]: 89 to 99% | inhibition at 50 µM [6, 32]: 40 to 92% | inhibition at 50 µM [6, 33]: 76 to 97% | inhibition at 50 µM [6, 34]: 82 to 95% | inhibition at 50 µM [6, 35]: 82 to 96% | activity at 50 µM [7]: 6% | IC50 [7]: 1800 nM

N#Cc1ccc(NC(=O)CC(=O)Nc2ccc(C#N)cc2)cc1 [D43]
activity at 10 µM [1, 8]: 14.5% | activity at 10 µM [1, 9]: 9.84% | activity at 10 µM [1, 10]: 26.2% | activity at 10 µM [1, 11]: 9.98% | activity at 10 µM [1, 12]: 15% | activity at 10 µM [1, 13]: 16.3% | activity at 10 µM [1, 14]: 11.8% | activity at 10 µM [1, 15]: 15.2% | activity at 10 µM [1, 16]: 24.3% | activity at 10 µM [1, 17]: 25.8% | activity at 10 µM [1, 18]: 12.6% | activity at 10 µM [1, 19]: 20.8% | activity at 10 µM [1, 20]: 23.7% | activity at 10 µM [1, 21]: 13.4% | activity at 10 µM [1, 22]: 21.7% | activity at 10 µM [1, 23]: 19.3% | solubility at 4 h [2]: 1.1e-05 M (≈ 3.35 µg/mL) | activity at 50 µM ([3]; read-out: DHQ, ΔmvfR-pqsABCD strain): 103% | activity at 50 µM [3, 24]: 91.3% | activity at 50 µM ([3]; read-out: PQS, ΔmvfR-pqsABCD strain): 99.4% | activity at 10 µM (ΔmvfR biofilm): 41.4% | Response Unit (RU) (MvfR protein (MvfRC87); Concentration 1.00E-05 M): 29.2 RU | Response Unit (RU) (MvfR protein (MvfRC87); Concentration 1.00E-06 M): 22.5 RU | Response Unit (RU) (MvfR protein (MvfRC87); Concentration 1.00E-07 M): 9.9 RU | Response Unit (RU) (MvfR protein (MvfRC87); Concentration 1.00E-08 M): 2.7 RU | Response Unit (RU) (MvfR protein (MvfRC87); Concentration 3.16E-06 M): 26.7 RU | Response Unit (RU) (MvfR protein (MvfRC87); Concentration 3.16E-07 M): 16.5 RU | Response Unit (RU) (MvfR protein (MvfRC87); Concentration 3.16E-08 M): 5 RU | activity at 10 µM [4]: 30.1% | activity at 50 µM [5]: 8% | IC50 [5]: 970 nM | AT/P cells formation, percentage of control (single replicates) (PA14 AT/P cells; PA14, 10 μg mL^−1 meropenem, 10 µM compound, 24 h, control PA14 + vehicle): 39.10% | inhibition at 10 µM (PA14 AT/P cells): ≥ 51% | activity at 50 µM [6, 25]: 19% | activity at 50 µM [6, 26]: 531% | activity at 50 µM [6, 27]: 34% | activity at 50 µM [6, 28]: 22% | activity at 50 µM [6, 29]: 39% | activity at 50 µM [6, 30]: 24% | inhibition at 50 µM [6, 31]: 89 to 99% | inhibition at 50 µM [6, 32]: 40 to 92% | inhibition at 50 µM [6, 33]: 76 to 97% | inhibition at 50 µM [6, 34]: 82 to 95% | inhibition at 50 µM [6, 35]: 82 to 96% | activity at 50 µM [7]: 8% | IC50 [7]: 1380 nM

From PMC9428149, “Tackling recalcitrant Pseudomonas aeruginosa infections in critical illness via anti-virulence monotherapy” (Nature Communications, 2022)
